Article PMC2846469, “Pharmacokinetic Study of a Novel Antihyperlipidemic Agent LM-13765- A Prodrug” (Indian Journal of Pharmaceutical Sciences, 2009)
“Also recorded” adds a separate entry of the source.

Tests used:
[1] = Preliminary in vivo study: serum LM 13765 by HPTLC after oral LM 13765; parameters: species or system rabbits (New Zealander strain); conditions: rabbits, oral 100 mg/kg, samples 0.5-12 h
Description: Drug/metabolite-free plasma or plasma spiked with fixed aliquots of LM 13765 or rabbit serum sample (0.2 ml) was taken in a glass centrifuge tube (15 ml capacity). Sufficient amount of acetonitrile was added to make the volume to 1.6 ml and vortexed at high speed for 1 min. The mixture was centrifuged (2500 rpm, 15 min) and the clear supernatant layer was transferred to another tube and dried over anhydrous sodium sulphate (0.25 g). Adequate volumes of the dried acetonitrile layer were spotted onto the TLC plate. Chromatographic estimations were performed using precoated silica gel 60 F254 TLC plates (prewashed with methanol and dried in air) under following conditions; A mobile phase, benzene:methanol (8:2 v/v); chamber saturation time, 60 min; temperature, 25±2°; development of plates, ascending mode; migration distance, 50 mm; slit dimension, 3×0.3 mm; wavelength of detection, 314 nm; band width, 4 mm; space between two bands, 4 mm; spraying rate, 10 μl/s.
Suitable volumes of standard solution of LM 13765 in acetonitrile or extracts of drug/metabolite-free plasma or rabbit serum samples, were applied on TLC plate under nitrogen stream using semiautomatic spotter. The plate was dried in air and developed at constant temperature (25±2°) using a mixture of benzene:methanol (8:2 v/v) as the mobile phase. […] Peak area values were used for quantitative determination. […]

[2] = Stability in plasma under storage conditions; type: in vitro ADME, rabbit; conditions: -20°, one day (24 h)
Description: The method was validated in terms of linearity, limit of quantitation, limit of detection, precision, accuracy and specificity. The linear response for LM 13765 spiked in plasma, was determined by analyzing corresponding samples five times for each concentration in the range of 12.5 to 100 ng/spot. The lowest concentration of the calibration range is taken as the limit of quantitation for LM 13765 while the limit of detection was determined by spotting concentrations of LM 13765 lower than the limit of quantitation. […] The recovery of LM 13765 from plasma (extraction efficiency) was determined by comparing peak areas obtained from plasma spiked with LM 13765 at concentration levels of 12.5, 25, 50, 75 and 100 ng/spot with the corresponding standards of LM 13765. Accuracy of the proposed method was determined by standard addition method at three different concentrations of LM 13765 in the range of 12.5 to 100 ng/spot. Specificity of the proposed method was assessed in terms of purity of chromatographic peak corresponding to LM 13765 by correlating the spectra scanned at peak start, peak apex and peak end positions of the spot corresponding to LM 13765. […] The sample was analyzed, on the same day as well as after 24 h storage, for the amounts of LM 13765. […]

[3] = tested on: serum cholesterol, triglycerides and HDL levels; parameters: method as in PMID 9037441; conditions: cited from earlier work
mice = conditions: up to the dose of 4.5 g/kg, earlier study reported in the introduction; cited from earlier work
hyperlipidemic rats = test: Biological screening for antihyperlipidemic activity on hyperlipidemic rats; type: in vivo

SMILES	Parent LM 13765 in serum after oral administration (HPTLC spot Rf 0.21) [1]	Stability in plasma under storage conditions [2]	potency versus standard drug gemfibrozil in lowering serum cholesterol and triglycerides and elevating serum HDL [3]	mortality or behavioral changes after oral administration (mice)	antihyperlipidemic activity relative to parent compound LM 13765 (hyperlipidemic rats)
CCOC(=O)C(C#N)=C(NC=N)Nc1ccc(Cl)cc1 [LM 13765, N-[2-carbethoxy-2-cyano-1-(p-chloroanilino)vinyl]formamidine]	no spot corresponding to LM 13765	undergoes significant degradation in one day	more potent than the standard drug gemfibrozil	no mortality or behavioral changes	–
CCOC(=O)C(C#N)=C(N)Nc1ccc(Cl)cc1 [LM 13765-C, ethyl 3-amino-2-cyano-3-(p-chloroanilino)acrylate]	–	stable	–	–	less potent than the parent compound; also recorded: very good antihyperlipidemic activity but is less potent than the parent compound
